The numbers were not newly measured in patent US6670356B2, “Analogs of galanthamine and lycoramine as modulators of nicotinic receptors” (priority 1999, dated 2003), which cites them from elsewhere.

For data set [1], the system named is nicotinic receptors of PC12 cells.
The test system of data set [2] is superior cervical ganglion. The following applies: cat.
In data set [3] the test system is gastrocnemius.
For data set [4], the system named is cholinesterase.

In the case of `COc1ccc2c3c1O[C@H]1[C@@H](O)C=C[C@H]4[C@@H](C2)N(C)CC[C@@]341` [codeine], the Whole-cell currents evoked result in data set [1] (PC12 cells) is reported as “do not evoke sizable whole-cell currents”.
For `COc1ccc2c3c1O[C@H]1C[C@@H](O)C=C[C@@]31CCN(C)C2` [galanthamine], in data set [2] (direct recordings, treated ganglia), the “Preservation of the ganglionic surface potential” value was “preservation of the surface potential is shown”. For the same compound, the “Inhibition of hexamethonium (C6) induced ganglionic blockade” value in data set [2] (intra-arterially, 250 micrograms) was “substantially inhibited”. In data set [1] (PC12 cells), the “Mode of action at nicotinic receptors” value is given as “noncompetitive agonists”, the “Single channel activity after incubation with FK1 (competitive monoclonal antibody to physostigmine)” value is recorded as “neither physostigmine nor galanthamine could induce” and the Whole-cell currents evoked entry is listed as “do not evoke sizable whole-cell currents”. Also, the Channel activation entry in data set [1] (inside-out patches from PC 12 cells) is reported as “cause some channel activation”. Moreover, the “Twitch potentiating effects relative to neostigmine or physostigmine” value in data set [3] (nerve muscle preparation, quoted from the cited authors' discussion) was 1/10. In addition, in data set [3] (quoted from the cited authors), the “Twitch potentiation relative to neostigmine or physostigmine” value was 1/10. Moreover, the “Anticholinesterase activity relative to neostigmine or physostigmine” value in data set [4] (quoted from the cited authors' discussion) is reported as 1/100.
With `CN(C)C(=O)Oc1cccc([N+](C)(C)C)c1` [neostigmine], the “IC 50 for cholinesterase inhibition, times lower than for galanthamine” value in data set [4] (rat brain, erythrocytes, or gastrocnemius homogenate) is on record as about 200 times lower.
